We go through ten compounds from paper PMC6010082, “Synthesis and in vitro antiproliferative and antibacterial activity of new thiazolidine-2,4-dione derivatives” (Journal of Enzyme Inhibition and Medicinal Chemistry, 2017).

Series [1] concerns Staphylococcus aureus ATCC 25923. As to the kind of experiment: Broth microdilution MIC, S. aureus ATCC 25923. It counts as cell-based. Conditions: 35 °C; for MIC: Staphylococcus aureus, ATCC25923, 18 h, read-out: Minimal inhibitory concentration MIC, Staphylococcus aureus 25923. As for the experimental part: (§1) Newly synthesised compounds’ antibacterial activities were tested in vitro against six aerobic bacteria reference strains: three Gram-positive (Staphylococcus aureus ATCC 25923, methicillin-resistant S. aureus MIKROBANK 14.001 reference strain from National Medicines Institute in Warsaw, and Staphylococcus epidermidis ATCC 12228) and three Gram-negative (Escherichia coli ATCC 25922, Proteus mirabilis ATCC 12453, and Pseudomonas aeruginosa ATCC 9027).
(§2) Bacterial cell suspensions equivalent to 0.5 McFarland (1.5 × 10^8 CFU/ml) were prepared in 0.85% sterile saline. Tested compounds’ stock solutions (50 mg/ml) were dissolved in dimethyl sulphoxide (DMSO).
(§3) Bacteria strain susceptibility to tested agents was determined by broth microdilution method. Broth microdilution method was carried out in accordance with Clinical and Laboratory Standards Institute recommendations and was used as reference method. Mueller–Hinton broth containing two-fold dilutions of the tested substances (at concentrations ranging from 3.91 to 1000 µg/ml) was used to determine their minimal inhibitory concentration (MIC) which is the lowest concentration of an antibacterial that will inhibit the visible growth of a microorganism after 18 h of incubation). Mueller–Hinton broth is recommended as the medium of choice for susceptibility testing of commonly isolated, rapidly growing aerobic, or facultative organisms. Gentamicin (KRKA, Slovenia), an aminoglycoside antibiotic active against a wide range of human bacterial infections, mostly Gram-negative bacteria including Pseudomonas, Proteus, Serratia, and the Gram-positive Staphylococcus, was used as a control antibacterial agent (at concentration from 0.12 µg to 1000 µg).
(§4) Tested compounds two-fold dilutions in Mueller–Hinton broth without bacteria were blank control wells (incubated on equal conditions). Polystyrene trays containing 96 wells were filled with serial two-fold Mueller–Hinton broth dilutions of tested agents. Next, the broth was inoculated with 20 μl of 0.5 McFarland microbial suspension (previously diluted 1:10 by Mueller–Hinton broth). Total volume per each well was 200 μl. After incubation (at 35 °C for 18 h), bacterial cultures’ optical density was measured by microplate reader (BioTek Synergy H4 Hybrid Reader) at 600 nm. The MIC values were determined by the comparison of broth bacterial culture OD600 containing tested concentrations of examined substances to blank control wells.

Series [2] deals with methicillin-resistant S. aureus MIKROBANK 14.001. As to the kind of experiment: Broth microdilution MIC, methicillin-resistant S. aureus. Particulars: methicillin-resistant strain, 18 h, 35 °C; for MIC: Staphylococcus aureus, read-out: Minimal inhibitory concentration MIC, Staphylococcus aureus MIKROBANK 14.001. The class given is cell-based, Staphylococcus aureus. As for the experimental part:
as §1, §2, §3, §4
On the technique in general: In broth dilution the organism is exposed to a series of concentrations in liquid medium.

The test system of series [3] is Staphylococcus epidermidis ATCC 12228. As to the kind of experiment: Broth microdilution MIC, S. epidermidis ATCC 12228. It counts as cell-based. Particulars: 35 °C; for MIC: Staphylococcus epidermidis, ATCC12228, 18 h, read-out: Minimal inhibitory concentration MIC, Staphylococcus epidermidis 12228. As for the experimental part:
as §1, §2, §3, §4

With `O=C(CC1SC(=O)NC1=O)Oc1ccc(C=NNC(=O)c2cccc(Cl)c2)cc1` (stereo not shown) [Compound 14, 4-{[2-(3-Chlorobenzoyl)hydrazinylidene]methyl}phenyl (2,4-dioxo-1,3-thiazolidin-5-yl)acetate], the melting point (in general, the temperature, or range, at which the solid turns liquid) was 215 to 216 °C.
The compound `O=C(CC1SC(=O)NC1=O)Oc1ccc(C=NNC(=S)Nc2ccccc2)cc1` (stereo not shown) [Compound 25, 4-{[2-(Phenylcarbamothioyl)hydrazinylidene]methyl}phenyl (2,4-dioxo-1,3-thiazolidin-5-yl)acetate] yielded a melting point of 159 to 162 °C. Also, in series [1], the MIC turned out to be 250 µg/mL. The MIC in series [2] turned out to be 250 µg/mL. For the same compound, the MIC in series [3] was determined as 250 µg/mL.
The compound `O=C(C=C1SC(=O)NC1=O)Oc1ccc(C=NNC(=S)Nc2ccccc2)cc1` [Compound 27, 4-{[2-(Phenylcarbamothioyl)hydrazinylidene]methyl}phenyl (2,4-dioxo-1,3-thiazolidin-5-ylidene)acetate] displayed a melting point of 199 to 202 °C. Besides, in series [1] (18 h), the “Minimal inhibitory concentration MIC, Staphylococcus aureus 25923” value was 125 µg/mL. In addition, the MIC in series [1] was found to be 125 µg/mL. Besides, in series [2], the MIC is 125 µg/mL and the “Minimal inhibitory concentration MIC, Staphylococcus aureus MIKROBANK 14.001” value is 125 µg/mL. Moreover, the “Minimal inhibitory concentration MIC, Staphylococcus epidermidis 12228” value in series [3] (18 h) was 125 µg/mL. Further, the MIC in series [3] is 125 µg/mL.
As for `COc1cc(C=NNC(=S)Nc2ccccc2)ccc1OC(=O)CC1SC(=O)NC1=O` (stereo not shown) [Compound 26, 2-Methoxy-4-{[2-(phenylcarbamothioyl)hydrazinylidene]methyl}phenyl (2,4-dioxo-1,3-thiazolidin-5-yl)acetate], the melting point fell in the range of 182 to 184 °C.
`O=C(CC1SC(=O)NC1=O)Oc1cccc(C=NNC(=O)c2cccc(Cl)c2)c1` (stereo not shown) [Compound 12, 3-{[2-(3-Chlorobenzoyl)hydrazinylidene]methyl}phenyl (2,4-dioxo-1,3-thiazolidin-5-yl)acetate] gave a melting point of 244 to 245 °C. Further, the MIC in series [1] was 500 µg/mL. Further, in series [2], the MIC turned out to be 500 µg/mL. For the same compound, in series [3], the MIC came to 500 µg/mL.
On to `O=C(C=C1SC(=O)NC1=O)Oc1cccc(C=NNC(=O)c2cccc(Cl)c2)c1` [Compound 19, 3-{[2-(3-Chlorobenzoyl)hydrazinylidene]methyl}phenyl (2,4-dioxo-1,3-thiazolidin-5-ylidene)acetate], for which the melting point was 282 to 283 °C.
On to `O=C(CC1SC(=O)NC1=O)Oc1ccc(C=NNC(=O)c2ccc(Cl)cc2Cl)cc1` (stereo not shown) [Compound 15, 4-{[2-(2,4-Dichlorobenzoyl)hydrazinylidene]methyl}phenyl (2,4-dioxo-1,3-thiazolidin-5-yl)acetate], for which the melting point is 196 to 198 °C. In series [1], the MIC was 500 µg/mL. Moreover, the MIC in series [2] amounted to 500 µg/mL. In addition, the MIC in series [3] is 500 µg/mL.
On to `O=C(CC1SC(=O)NC1=O)Oc1cccc(C=NNC(=O)c2ccc(Cl)cc2Cl)c1` (stereo not shown) [Compound 13, 3-{[2-(2,4-Dichlorobenzoyl)hydrazinylidene]methyl}phenyl (2,4-dioxo-1,3-thiazolidin-5-yl)acetate], for which the melting point lay within 198 to 200 °C. The MIC in series [1] is 500 µg/mL. Besides, in series [2], the MIC amounted to 500 µg/mL. The MIC in series [3] was 500 µg/mL.
`COc1cc(C=NNC(=O)c2ccc(Cl)cc2Cl)ccc1OC(=O)CC1SC(=O)NC1=O` (stereo not shown) [Compound 17, 4-{[2-(2,4-Dichlorobenzoyl)hydrazinylidene]methyl}-2-methoxyphenyl (2,4-dioxo-1,3-thiazolidin-5-yl)acetate] came in with a melting point of 186 to 188 °C. In series [1], the MIC was found to be 250 µg/mL. In series [2], the MIC is 250 µg/mL. In series [3], the MIC is 500 µg/mL.
Compound `COc1cc(C=NNC(=S)Nc2ccccc2)ccc1OC(=O)C=C1SC(=O)NC1=O` [Compound 28, 2-Methoxy-4-{[2-(phenylcarbamothioyl)hydrazinylidene]methyl}phenyl (2,4-dioxo-1,3-thiazolidin-5-ylidene)acetate] showed a melting point of 186 to 187 °C. Moreover, the MIC in series [1] amounted to 125 µg/mL. Further, the MIC in series [2] turned out to be 125 µg/mL. In addition, the MIC in series [3] worked out at 125 µg/mL.
